# Laboratory results published in patent US20100125103A1 (TG BIOTECH CO. LTD., priority 2008, published 2010).
# “Also recorded” adds a separate entry of the source.
# Key:
# diabetic db/db mice = test: Blood glucose level in db/db mice; type: in vivo; conditions: for reduced extent of blood glucose level compared to control / blood glucose level: 10 mg/kg oral
# Procedure: In order to measure the blood glucose level in db/db mice through treatment of the compounds obtained from Examples, the effects of the compounds were measured by using a method described in the reference (Halseth A E et al, Biochem Biophys Res Commun. 294, […], 2002).
# Meanwhile, to a control group, the same volume of saline solution orally administered for 4 weeks. Then, the change in blood glucose level of the mice was recorded.
# Solubility (Table 1) = type: physicochemical; conditions: for Solubility Insoluble: solvents in which the compound is insoluble; for Solubility Soluble: solvents in which the compound is soluble
# Procedure: Each of the compounds prepared by Examples 1 to 7 were subjected to UV absorbance analysis, IR(infrared) absorbance analysis and high resolution mass spectrometry analysis so as to determine the molecular weight and formula of the purified compound. Specifically, UV absorbance analysis was carried out by UV-265 spectrophotometer (Shimadzu), IR absorbance analysis was carried out by FTS-80 spectrophotometer (Bio-Rad Digilab Division), and the molecular weight and formula were determined through High resolution MS analysis by using VG70-SEQ mass spectrometry. Also, a nuclear magnetic resonance device (Varian 300, 500 NMR) was used to obtain ^1H, ^13C-NMR spectrum, and the spectrum was synthetically analyzed to determine the structure.
Solubility Insoluble (Solubility (Table 1)),Solubility Soluble (Solubility (Table 1)),Molecule,also measured
"Hexane,; also recorded: Water","Alcohol, and DMSO","CCCc1ccc(Oc2cc(CCC)cc(O)c2OC)cc1 [Example 3, 3-(4-propylphenoxy)-2-methoxy-5-propylphenol]",
Water,"Alcohol, and DMSO","C/C=C/c1ccc(Oc2cc(/C=C/C)cc(O)c2O)cc1 [Example 5, 3-(4-((E)-prop-1-enyl)phenoxy)-5-((E)-prop-1-enyl)benzene-1,2-diol]",
Water,"Alcohol, and DMSO","CCCc1ccc(Oc2cc(CCC)cc(OC(C)=O)c2OC(C)=O)cc1 [Example 4, 1-(4-propylphenoxy)-2,3-diacetyloxy-5-propylbenzene]",
Water,"Alcohol, and DMSO","CCCc1ccc(Oc2cc(CCC)cc(O)c2O)cc1 [Example 2, 3-(4-propylphenoxy)-5-propylbenzene-1,2-diol]",

# Continued, molecule first:
Molecule,Solubility Insoluble (Solubility (Table 1)),Solubility Soluble (Solubility (Table 1)),also measured
obovatol [Example 1],,,"change in blood glucose level compared to the control group (diabetic db/db mice; 5 mg/kg oral, 4 weeks): did not show a significant change; reduced extent of blood glucose level compared to control (diabetic db/db mice; after 1 week): 39.6%; blood glucose level (diabetic db/db mice; after 1 week (control 390.25±44.1)): 235.75±20.9; reduced extent of blood glucose level compared to control (diabetic db/db mice; after 2 weeks): 29.2%; blood glucose level (diabetic db/db mice; after 2 weeks (control 419.75±28.8)): 297.25±29; reduced extent of blood glucose level compared to control (diabetic db/db mice; after 3 weeks): 52.7%; blood glucose level (diabetic db/db mice; after 3 weeks (control 495±86.2)): 234±61.5; reduced extent of blood glucose level compared to control (diabetic db/db mice; after 4 weeks): 55.2%; blood glucose level (diabetic db/db mice; after 4 weeks (control 522±78)): 288±27.6"
"C/C=C/c1ccc(Oc2cc(/C=C/C)cc(OC(C)=O)c2OC(C)=O)cc1 [Example 7, 1-(4-((E)-prop-1-enyl)phenoxy)-2,3-diacetyloxy-5-((E)-prop-1-enyl)benzene]",Water,"Alcohol, and DMSO",
